One test relates to brain G-protein. The experiment in a line: GTPγS binding assay, brain G-protein. It counts as biochemical, bovine. Particulars: AGS proteins. The protocol: A and B, the carboxyl region of AGS3 (Pro^463-Ser^650) containing all four GPR repeats was generated as a His-tagged (A) or GST fusion (B) protein for protein interaction assays as described under Examples. All interactions were done in the presence of 10 μM GDP, and the input lanes represent one-tenth of the G-protein used in each interaction assay. A, Giα1 (75 nM) was incubated with 300 nM His-tagged AGS3-GPR in the absence and presence of increasing amounts of the GPR peptide, after which bound Giα was isolated on a nickel affinity matrix, and samples were processed for immunoblotting with Giα antisera. The blot in the upper panel of A was stripped and reprobed with AGS3 antisera to provide internal controls for protein loading. B, Giα2 (75 nM) was incubated with 300 nM AGS3-GPR or GST in the presence and absence of 100 μM GPR consensus peptide, GPR peptide Q15A, or GPR peptide R23F. […] C and D, GTPγ^35S binding to G-proteins (100 nM) was measured in the absence and presence of peptides as described in the Examples. Data are expressed as the percent of specific binding (˜5 pmol) observed in the absence of peptide and represent the means±S.E. derived from three experiments. […]
GTPγS Binding Assays—GTPγS binding assays were generally conducted as described (39). […] Radioactivity bound to the filters was determined by liquid scintillation counting. […]

The test system of another test is brain Gβγ. Kind of test: GST fusion protein interaction with purified brain Gβγ. It is filed as binding, bovine. The following applies: GST fusion protein ~300 nM, Gβγ 40 nM. The text has this:
(A) Bioactivity of cDNA #37 and 53 in yeast strains expressing different Gα subunits. The Gpa1, Giα2Gpa1(1-41), Giα3Gpa1(1-41) and Gα16Gpa1(1-41) yeast strains expressed similar amounts of G-protein as determined by immunoblotting with Gpa1-specific antisera. Each series of experiments include data obtained in the absence of Gα to indicate the signal obtained when the action of Gβγ is not limited by reformation of heterotrimer. Data are presented as the mean±S.E.M of three experiments with duplicate determinations. (B) Interaction of AGS2 and AGS3 with G-proteins. AGS2 and the bioactive AGS3 peptide (74 amino acids) beginning at the first in frame methionine were generated as GST-fusion proteins in bacteria and purified using a glutathione affinity matrix. AGS2 and AGS3 GST fusion proteins were incubated with G-protein subunits (Gα=60-80 nM, Gβγ=40 nM, fusion protein=˜300 nM, total volume=250 ul) for 12 hrs at 4° C. GDP=10 uM. GTPγS=10 uM plus 5 mM MgCl2. […] Giα2 was generated in Sf9 cells as an amino terminal his6-tagged protein and was detected on membrane transfers using anti-Xpress antisera (Invitrogen). Bovine brain Gβγ was detected on membrane transfers with Gβ antisera. […]
Immunoblotting and G-protein interaction assays. […] Bound proteins were detected by immunoblotting membrane transfers with specific antisera. […]

“AGS2: Activator of G-protein Signalling 2, protein identical to mouse Tctex1, isolated from NG108-15 cDNA library”: the “effect on GTPγ35S binding to heterotrimeric brain G-protein” value with brain G-protein is on record as “did not alter”. In the test on brain Gβγ, the “interaction with brain Gβγ” value is “directly bound”.

B1: AGS3: Activator of G-protein Signalling 3; bioactive 74 amino acid fragment isolated in yeast screen, tested as GST fusion (protein)
chain: MLIKYQSSRIDDQRCPPPDVLPRGPTMPDEDFFSLIQRVQAKRMDEQRVDLAGSPDQEASGLPDPRQQCPPGAS
modifications: left off: a dimerising Fc or GST
B1: in the test on brain G-protein, the “effect on GTPγ35S binding to heterotrimeric brain G-protein” value is “did not alter”. Moreover, the “interaction with brain Gβγ” value with brain Gβγ was “did not interact”.

Source of the values: patent US20030054411A1, “GPR motifs and uses thereof” (priority 2001, published 2003).
